Reference: patent US9938261B2, “Heterocyclic compounds and methods of use thereof” (AMBIT BIOSCIENCES CORPORATION, priority 2011, dated 2018)

Target: CSF1R (Homo sapiens, UniProt P07333)
Experiment: HEK293 CSF1R phosphorylation MSD assay
Format: cell-based
Set-up: expressed in transfected cells; host or cells: HEK293
Details: HEK293 cells, M-CSF stimulated CSF1R phosphorylation, MSD; read-out: HEK293 pCSF1R M-CSF MSD:IC50
Summary of the method: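 HEK293 cells expressing CSF1R-FKBP were pretreated 2 h at 37° C with 9 half-log concentrations of compound (0.5% DMSO final), then stimulated 5 min with 50 ng/mL human M-CSF. Lysates captured on biotin-FK506 plates; phosphotyrosine detected by MSD electrochemiluminescence. IC50 versus DMSO, averaged from duplicate plates.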

CSF1R, sequence (P07333 20-972): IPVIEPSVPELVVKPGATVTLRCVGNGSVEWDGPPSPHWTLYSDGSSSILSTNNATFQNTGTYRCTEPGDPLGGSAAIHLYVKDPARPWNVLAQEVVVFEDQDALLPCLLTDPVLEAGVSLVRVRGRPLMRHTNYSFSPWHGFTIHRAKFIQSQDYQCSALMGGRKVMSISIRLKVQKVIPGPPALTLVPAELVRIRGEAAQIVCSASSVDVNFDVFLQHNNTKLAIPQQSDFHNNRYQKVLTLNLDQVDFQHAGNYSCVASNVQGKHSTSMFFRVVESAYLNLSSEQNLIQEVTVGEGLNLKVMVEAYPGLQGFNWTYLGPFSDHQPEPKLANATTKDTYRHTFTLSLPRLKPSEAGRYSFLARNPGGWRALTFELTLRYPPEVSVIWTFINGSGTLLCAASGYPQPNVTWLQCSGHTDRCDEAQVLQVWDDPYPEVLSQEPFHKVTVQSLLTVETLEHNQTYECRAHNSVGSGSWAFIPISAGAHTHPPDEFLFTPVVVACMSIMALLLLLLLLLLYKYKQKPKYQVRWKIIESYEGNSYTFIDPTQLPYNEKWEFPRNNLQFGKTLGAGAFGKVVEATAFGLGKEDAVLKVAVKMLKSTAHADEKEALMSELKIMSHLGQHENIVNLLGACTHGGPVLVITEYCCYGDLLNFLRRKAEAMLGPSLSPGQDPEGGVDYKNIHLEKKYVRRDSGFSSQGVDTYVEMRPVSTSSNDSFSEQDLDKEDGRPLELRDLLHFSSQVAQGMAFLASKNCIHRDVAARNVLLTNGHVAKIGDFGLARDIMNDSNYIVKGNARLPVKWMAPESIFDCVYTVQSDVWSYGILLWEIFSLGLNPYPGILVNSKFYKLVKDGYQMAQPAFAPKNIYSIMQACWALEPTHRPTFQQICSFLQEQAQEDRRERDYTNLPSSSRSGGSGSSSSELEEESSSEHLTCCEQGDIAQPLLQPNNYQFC

| IC50 [nM] | Structure (SMILES) |
| --- | --- |
| > 500 | Fc1cnc2c(c1)ncn2Cc1ccc2nc(Nc3ccccc3)sc2c1 [Example 191, 6-((6-fluoro-3H-imidazo[4,5-b]pyridin-3-yl)methyl)-N-phenylbenzo[d]thiazol-2-amine] |
| 200 to 500 | N#Cc1cc2ncn(Cc3ccc4nc(N[C@@H]5CCCC[C@H]5O)oc4c3)c2cc1Cl [Example 195, 6-chloro-1-((2-(((1R,2R)-2-hydroxycyclohexyl)amino)benzo[d]oxazol-6-yl)methyl)-1H-benzo[d]imidazole-5-carbonitrile] |
| 200 to 500 | Cc1cc(C)c2c(c1)ncn2Cc1ccc2nc(N[C@@H]3CCCC[C@H]3O)sc2c1 [Example 189] |
| 50 to 200 | CN1CCN(c2ccn3c(Cc4ccc5nc(N[C@@H]6CCCC[C@H]6O)sc5c4)cnc3c2)CC1 [Example 188, (1R,2R)-2-((6-((7-(4-methylpiperazin-1-yl)imidazo[1,2-a]pyridin-3-yl)methyl)benzo[d]thiazol-2-yl)amino)cyclohexanol] |
| 200 to 500 | OC[C@H]1CC[C@H](Nc2nc3ccc(Cn4cnc5cc(F)cnc54)cc3s2)CC1 [Example 179, (trans-4-((6-((6-fluoro-3H-imidazo[4,5-b]pyridin-3-yl)methyl)benzo[d]thiazol-2-yl)amino)cyclohexyl)methanol] |
| 50 to 200 | O[C@@H]1CCCC[C@H]1Nc1nc2ccc(Cc3cnc4cc(N5CCOCC5)ccn34)cc2s1 [Example 187, (1R,2R)-2-((6-((7-morpholinoimidazo[1,2-a]pyridin-3-yl)methyl)benzo[d]thiazol-2-yl)amino)cyclohexanol] |
| 50 to 200 | Cn1cc(-c2ccc3c(c2)ncn3Cc2ccc3nc(N[C@@H]4CCCC[C@H]4O)sc3c2)c(C(F)(F)F)n1 [Example 185, (1R,2R)-2-((6-((5-(1-methyl-3-(trifluoromethyl)-1H-pyrazol-4-yl)-1H-benzo[d]imidazol-1-yl)methyl)benzo[d]thiazol-2-yl)amino)cyclohexanol] |
| > 500 | Cc1cc(Br)cc2ncn(Cc3ccc4nc(N[C@@H]5CCCC[C@H]5O)sc4c3)c12 [Example 190, (1R,2R)-2-((6-((5-bromo-7-methyl-1H-benzo[d]imidazol-1-yl)methyl)benzo[d]thiazol-2-yl)amino)cyclohexanol] |
| 50 to 200 | OC[C@H]1CCC[C@@H](Nc2nc3ccc(Cn4cnc5cc(F)cnc54)cc3s2)C1 [Example 194, ((1S,3R)-3-((6-((6-fluoro-3H-imidazo[4,5-b]pyridin-3-yl)methyl)benzo[d]thiazol-2-yl)amino)cyclohexyl)methanol] |
| 200 to 500 | O[C@@H]1CCCC[C@H]1Nc1nc2ccc(Cn3cnc4cc(C5=CCCCC5)ccc43)cc2s1 [Example 184, (1R,2R)-2-((6-((5-(cyclohex-1-en-1-yl)-1H-benzo[d]imidazol-1-yl)methyl)benzo[d]thiazol-2-yl)amino)cyclohexanol] |
| ≤ 50 | O[C@@H]1[C@H](O)CCC[C@H]1Nc1nc2ccc(Cn3cnc4cc(F)cnc43)cc2s1 [Example 193, (1R,2S,3R)-3-((6-((6-fluoro-3H-imidazo[4,5-b]pyridin-3-yl)methyl)benzo[d]thiazol-2-yl)amino)cyclohexane-1,2-diol] |
| ≤ 50 | C=Cc1ccc2c(c1)ncn2Cc1ccc2nc(N[C@@H]3CCCC[C@H]3O)sc2c1 [Example 183, (1R,2R)-2-((6-((5-vinyl-1H-benzo[d]imidazol-1-yl)methyl)benzo[d]thiazol-2-yl)amino)cyclohexanol] |
| 200 to 500 | O[C@@H]1CCCC[C@H]1Nc1nc2ccc(Cn3cnc4cnc(C(F)(F)F)nc43)cc2s1 [Example 105, (1R,2R)-2-((6-((2-(trifluoromethyl)-9H-purin-9-yl)methyl)benzo[d]thiazol-2-yl)amino)cyclohexanol] |
| 200 to 500 | CS[C@@H]1CCCC[C@H]1Nc1nc2ccc(Cn3cnc4cc(F)cnc43)cc2s1 [Example 181, 6-((6-fluoro-3H-imidazo[4,5-b]pyridin-3-yl)methyl)-N-((1R,2R)-2-(methylthio)cyclohexyl)benzo[d]thiazol-2-amine] |
| 200 to 500 | OC[C@@H]1CCC[C@@H](Nc2nc3ccc(Cn4cnc5cc(F)cnc54)cc3s2)C1 [Example 192, ((1R,3R)-3-((6-((6-fluoro-3H-imidazo[4,5-b]pyridin-3-yl)methyl)benzo[d]thiazol-2-yl)amino)cyclohexyl)methanol] |
| ≤ 50 | O[C@@H]1CCCC[C@H]1Nc1nc2ccc(Cc3cnc4ccc(Br)nn34)cc2s1 [Example 177, (1R,2R)-2-((6-((6-bromoimidazo[1,2-b]pyridazin-3-yl)methyl)benzo[d]thiazol-2-yl)amino)cyclohexanol] |
| 200 to 500 | CN1CCN(c2ccc3ncc(Cc4ccc5nc(N[C@@H]6CCCC[C@H]6O)sc5c4)n3n2)CC1 [Example 178, (1R,2R)-2-((6-((6-(4-methylpiperazin-1-yl)imidazo[1,2-b]pyridazin-3-yl)methyl)benzo[d]thiazol-2-yl)amino)cyclohexanol] |
| ≤ 50 | CC(C)(O)C#Cc1cnc2c(c1)ncn2Cc1ccc2nc(N[C@@H]3CCCC[C@H]3O)sc2c1 [Example 104, (1R,2R)-2-((6-((6-(3-hydroxy-3-methylbut-1-yn-1-yl)-3H-imidazo[4,5-b]pyridin-3-yl)methyl)benzo[d]thiazol-2-yl)amino)cyclohexanol] |
| > 500 | OC[C@H]1CC[C@@H](Nc2nc3ccc(Cn4cnc5cc(F)cnc54)cc3s2)CC1 [Example 180, (cis-4-((6-((6-fluoro-3H-imidazo[4,5-b]pyridin-3-yl)methyl)benzo[d]thiazol-2-yl)amino)cyclohexyl)methanol] |
| 200 to 500 | O[C@@H]1CCCC[C@H]1Nc1nc2ccc(Cc3cnc4cccc(F)n34)cc2s1 [Example 186, (1R,2R)-2-((6-((5-fluoroimidazo[1,2-a]pyridin-3-yl)methyl)benzo[d]thiazol-2-yl)amino)cyclohexanol] |
| ≤ 50 | O[C@@H]1CCCC[C@H]1Nc1nc2ccc(Cn3cnc4cc(OC5COC5)ccc43)cc2s1 [Example 182, (1R,2R)-2-((6-((5-(oxetan-3-yloxy)-1H-benzo[d]imidazol-1-yl)methyl)benzo[d]thiazol-2-yl)amino)cyclohexanol] |
